Measurements reported in patent US8519163B2, “Anti-tumor activity of AECHL-1, novel triterpenoid isolated from Ailanthus excelsa in vitro and in vivo” (National Centre for Cell Science, priority 2008, dated 2013).

Assays:
[1] = system: p53; test: Immunocytochemistry, p53 translocation in MCF-7 cells; format: cell-based, human; details: AECHL-1 2-40 μM, 24 h, confocal microscopy
Experimental: Immunocytochemistry was performed as described previously. […] Cells were incubated with primary anti-p53 antibodies (1:100; Abcam) and anti-α-tubulin antibodies (1:10000; Sigma chemical Co.) for 1 hour at room temperature. After washing with PBS, cells were incubated with CY2-conjugated secondary antibodies (1:200; Chemicon, Germany) and Alexa-conjugated secondary antibodies (1:10000; Sigma, St. Louis, Mo.) for 45 minutes and nuclear staining was done with DAPI. Images were captured under confocal microscope.
The tumor suppressor p53 plays a critical role in preventing human cancer formation. It translocates into the nucleus and works as a transcription factor by upregulating cell cycle regulatory proteins and induces cell cycle arrest and/or programmed cell death (apoptosis) (11). […] After 24 h of incubation, the p53 translocation in the nucleus (green fluorescence) and microtubule network (red fluorescence) was visualized by confocal microscopy.

[2] = system: MDA-MB-231 human breast carcinoma; test: Cell viability (MTT) and proliferation ([3H]thymidine) assay; format: cell-based; details: 12, 24 and 48 h, concentration and time dependent
Experimental: (§1) The cytotoxic effect of AECHL-1 on the HEK 293, B16F10, PC3, MCF 7 and MDA-MB-231 cells was measured by MTT assay as described in previous studies. The cells were dispensed in 96-well, flat bottom microtiter plates (Becton Dickinson Labware) at a density of 5×10^3 cells each well. […] MTT [3-(4,5-dimethylthiazol-2yl)-2,5-diphenyl tetrazolium bromide] solution (5 mg/ml in PBS) was added at the end of experiment to each well to a final concentration of 0.5 mg/ml, and the cultures were incubated for further 4 h. The resulting formazan crystals were dissolved in 100 μl dimethylsulfoxide (DMSO) and absorbance was measured in a microplate reader at 570 nm (Molecular Devices, Spectra MAX 250). The cytotoxic effect was expressed as a relative percentage of inhibition calculated as follows: Relative inhibition(%)=[(A570 control−A570 AECHL-1)A570 control]×100 Cell Proliferation Assay
(§2) Aliquots of complete medium containing 5×10^3 cells (B16F10, PC3, MDA-MB-231 and MCF-7 cells) were distributed into 96-well tissue culture plates. […] After 6 h incubation, 1 μCi [^3H]thymidine was added to each well. Cells were harvested after 24 and 48 hrs of treatment on a glass filter paper with a 96-well auto-harvester and the amount of incorporated [^3H]thymidine was determined with a β-counter (Canberra packard).

[3] = system: MCF-7 human breast cancer; test: as above; format: cell-based
Experimental: as §1, §2

[4] = system: B16F10 mouse melanoma cells; test: as above; format: cell-based; details: 12, 24 and 48 h, concentration and time dependent
Experimental: as §1, §2

[5] = system: PC3 human prostate cancer cells; test: as above; format: cell-based; details: 12, 24 and 48 h, concentration and time dependent
Experimental: as §1, §2

[6] = system: p53; test: Western blot of tumor homogenates of C57B1/6 mice; format: in vivo, mouse; details: tumor of C57 mice, compared with control
Experimental: (§3) Prior to immunoblot analysis, tumor segments stored at −80° C. were thawed, washed, minced and homogenized in lysis buffer (120 mM NaCl, 1.0% Triton X 100, 20 mM Tris-HCl, pH 7.5, 10% glycerol, 2 mM EDTA, Protease inhibitor cocktail, Roche) using a Polytron homogenization device. Lysates were incubated at 4° C. for 30 min and centrifuged at 14000 r.p.m. in an Eppendorf micro centrifuge for 15 min. Proteins were isolated in solublised form. Protein concentrations were measured by Bradford assay (Bio-Rad protein assay kit) and stored at −80° C. For immunobloting, 60 μg of total protein from the tumor lysates were used Proteins were resolved in a 10% SDS-polyacrylamide gel, transferred to the immobilon-P […] membrane and blocked with 5% (wt/v) non fat dry milk powder (Sigma) in TBST buffer (10 mM Tris pH 7.6, 150 mM NaCl and 0.1% Tween-20) for three hours at room temperature and then incubated with primary antibodies p53, pp53, p21, Cyclin D1, CDK4 and c-Myc in TBST for 3 h and with actin for 1 hour at room temperature. The membrane was incubated further with the secondary antibody HRP-conjugated (BD Bioscience) at 1:10000 dilution for 1 h at room temperature. Following each antibody incubation, the membrane was washed thoroughly with TBST buffer 3 times. The protein bands were visualized using the enhanced chemiluminescence substrate reaction (Pierce) according to the manufacturer's instructions using X-OMAT AR5 film (Kodak)

[7] = system: c-Myc; test: Western blot of tumor homogenates of C57B1/6 mice; format: in vivo, mouse; details: tumor of C57 mice
Experimental: as §3

[8] = system: p21; test: Western blot of tumor homogenates of C57B1/6 mice; format: in vivo, mouse; details: tumor of C57 mice
Experimental: as §3

[9] = system: Cyclin D1; test: Western blot of tumor homogenates of C57B1/6 mice; format: in vivo, mouse; details: tumor of C57 mice
Experimental: as §3

[10] = system: pp53; test: Western blot of tumor homogenates of C57B1/6 mice; format: in vivo, mouse; details: tumor of C57 mice
Experimental: as §3

[11] = system: CDK4; test: Western blot of tumor homogenates of C57B1/6 mice; format: in vivo, mouse; details: tumor of C57 mice
Experimental: as §3

[12] = system: B16F10 cells; test: Cell cycle analysis by flow cytometry; format: cell-based, mouse; details: for Phase of cell cycle (% of cells) G1 / Phase of cell cycle (% of cells) G2/M / Phase of cell cycle (% of cells) S / Phase of cell cycle (% of cells) Sub G0: 24 h
Experimental: The cell cycle analysis of MCF-7, B16F10 MDA-MB-231 and PC3 cells was done by flow cytometry. […] Cells were harvested with trypsin (0.05%), 0.02% EDTA, 0.05% glucose and a single-cell suspension was prepared. Cells were washed and were pelleted by centrifugation (1000×g for 2 min) and fixed in 70% ethanol while vortexing and stored at 4° C. for 1 hour. Fixed cells were pelleted by centrifugation, to remove ethanol and washed with PBS. Cells were re-suspended in PBS containing 50 μg/ml propidium iodide, 0.1 g/L RNase and 1% BSA, incubated for 30 min at 37° C. in the dark, and analyzed with flow cytometry (FACS Vantage-BD Sciences, USA) equipped with an argon laser at 488 nm. The data was analyzed using Cell Quest software for determining the percent population in different phases of cell cycle.

C=C1C(OCC)C2(O)OCC34C(=C(C)c5c(C)cc(O)c(OCC)c5C23)OC(=O)C(OC(=O)C(C)(O)CC)C14 (centres unmarked) [AECHL-1]
p53 translocation in the nucleus [1]: translocation of the p53 into the nucleus | percent viability and proliferation of the tumor cells [2]: significantly inhibited | percent viability and proliferation of the tumor cells ([3]; MCF-7, 12, 24 and 48 h, concentration and time dependent): significantly inhibited | inhibitory effect compared with reference drugs ([3]; MCF-7 cells, 10 μM, 48 h): stronger than that of Paclitaxel, or Cisplatin | percent viability and proliferation of the tumor cells [4]: significantly inhibited | percent viability and proliferation of the tumor cells [5]: significantly inhibited | p53 protein expression ([6]; 50 μg): increasing expression | p53 protein expression ([6]; 100 μg): increasing expression | expression of c-Myc [7]: downragulation | expression of p21 ([8]; 50 μg): decrease | expression of p21 ([8]; 100 μg): increased | expression of cyclin D1 [9]: reduced the expression | phosphorylation of p53 (pp53) ([10]; 50 μg): increasing | phosphorylation of p53 (pp53) ([10]; 100 μg): decreased | expression of CDK4 [11]: reduced the expression | Phase of cell cycle (% of cells) G1 ([12]; B16F10, 10 μM): 56.55% | Phase of cell cycle (% of cells) G2/M ([12]; B16F10, 10 μM): 23.02% | Phase of cell cycle (% of cells) S ([12]; B16F10, 10 μM): 20.46% | Phase of cell cycle (% of cells) Sub G0 ([12]; B16F10, 10 μM): 0.39% | Phase of cell cycle (% of cells) G1 ([12]; B16F10, 20 μM): 57.67% | Phase of cell cycle (% of cells) G2/M ([12]; B16F10, 20 μM): 23.60% | Phase of cell cycle (% of cells) S ([12]; B16F10, 20 μM): 18.40% | Phase of cell cycle (% of cells) Sub G0 ([12]; B16F10, 20 μM): 0.65% | Phase of cell cycle (% of cells) G1 ([12]; B16F10, 40 μM): 72.08% | Phase of cell cycle (% of cells) G2/M ([12]; B16F10, 40 μM): 14.73% | Phase of cell cycle (% of cells) S ([12]; B16F10, 40 μM): 11.43% | Phase of cell cycle (% of cells) Sub G0 ([12]; B16F10, 40 μM): 2.05% | Phase of cell cycle (% of cells) G1 ([12]; B16F10, 100 μM): 64.04% | Phase of cell cycle (% of cells) G2/M ([12]; B16F10, 100 μM): 13.23% | Phase of cell cycle (% of cells) S ([12]; B16F10, 100 μM): 15.41% | Phase of cell cycle (% of cells) Sub G0 ([12]; B16F10, 100 μM): 7.82% | phase of cell growth arrest ([12]; B16F10 cells): G0/G1 phase arrest
